Experimental data reported in patent publication US20240301359A1, “SYSTEM COMPRISING CISPLATIN-RESISTANT XENOGRAFT FOR NASOPHARYNGEAL CARCINOMA AND METHODS THEREOF” (THE UNIVERSITY OF HONG KONG, priority 2023, published 2024).

Key:
Format in all cases: in vivo
[1] = system: xeno113 metastatic NPC; assay: ixazomib sensitivity of metastatic NPC PDX xeno113; settings: relatively low dosage
[2] = body weight and side effects in ixazomib-treated nude mice
Protocol: (§1) Xeno76-CR-bearing nude mice were randomized into the control and 4 mg/kg ixazomib treatment group (n=4). Referring to FIG. 5A, black arrows represent the treatment day. Data presented are mean (n=4) with error bars showing SEM. Statistical significance was done using one-way ANOVA, **** P<0.0001.
(§2) The images of size and appearance of the xeno76-CR tumor-bearing mice between control and treatment groups on day 21 are shown in FIG. 5B. […] In FIG. 5C and FIG. 5D, data presented are means (n=4) with error bars showing the SEM. Statistical significance was done using the unpaired two-tailed t-test. Black arrows represent the treatment day.

[3] = system: xeno76 primary NPC; assay: ixazomib sensitivity of primary NPC PDX xeno76; settings: naïve to radio- and chemotherapy, relatively low dosage
[4] = system: xeno76-CR cisplatin-resistant NPC PDX; assay: ixazomib treatment of xeno76-CR-bearing nude mice
Protocol: as §1, §2

[5] = system: xeno76 NPC PDX; assay: cisplatin treatment of xeno76 PDX-bearing nude mice
Protocol: (§3) Parental xeno76 and xeno76-CR-bearing nude mice were randomized into control and treatment groups (n=4). […] The tumor volume was measured and recorded during the whole treatment period, and the tumor growth curves of xeno76 and xeno76-CR are shown in Error! […] Black arrows represent the treatment day. The xeno76 and xeno76-CR nude mice were randomized respectively on day 0 and received the first treatment. Data presented are mean (n=4) with error bars showing SEM. Statistical significance was done using paired two-tailed t-test, *** P<0.001, ns P>0.05. Furthermore, the tumors of xeno76 and xeno76-CR were also weighed and harvested for further investigation (FIG. 2C). Statistical significance was done using the unpaired two-tailed t-test, ** P<0.01, ns P>0.05.

[6] = maximum tolerated dose of cisplatin in nude mice; settings: weekly i.p.
From the text: A protocol for developing cisplatin-resistant PDX model from the NPC PDX models is described. NPC PDX tissues were implanted in nude mice subcutaneously (FIG. 1).

[7] = system: xeno76-CR cisplatin-resistant NPC PDX; assay: cisplatin treatment of xeno76-CR PDX-bearing nude mice; settings: 3 mg/kg cisplatin weekly i.p., at harvest, ns P>0.05
Protocol: as §3

| Compound | sensitivity to ixazomib [1] | observable side effects or weight loss ([2]; 4 mg/kg ixazomib, xeno76-CR bearing nude mice) | side effects and body weight loss ([2]; all the tested animals, summary statement) | sensitivity to ixazomib [3] | sensitivity to ixazomib ([4]; cisplatin-resistant NPC (xeno76-CR), relatively low dosage, summary statement) | tumor weight at the endpoint of the experiment ([4]; xeno76-CR, 4 mg/kg ixazomib, n=4 mean, control group 0.52 g, * P<0.05) [g] | tumor growth (tumor volume) vs control ([4]; xeno76-CR, 4 mg/kg ixazomib, three-week treatment, n=4, **** P<0.0001) | tumor growth (tumor volume) vs control ([5]; 3 mg/kg cisplatin in saline weekly i.p., n=4, *** P<0.001) | tumor weight vs control ([5]; 3 mg/kg cisplatin weekly i.p., at harvest) | maximum tolerated dose [6] [mg/kg] | tumor weight vs control [7] |
| --- | --- | --- | --- | --- | --- | --- | --- | --- | --- | --- | --- |
| CC(C)C[C@H](NC(=O)CNC(=O)c1cc(Cl)ccc1Cl)B(O)O [ixazomib] | sensitive to ixazomib | did not induce any observable side effects or weight loss | no side effects and body weight loss | sensitive to ixazomib | sensitive to ixazomib | 0.21 | effectively inhibited xeno76-CR growth |  |  |  |  |
| N.N.[Cl][Pt][Cl] [cisplatin] |  |  |  |  |  |  |  | significantly inhibited | significantly lighter than the xeno76 control group | 5 | no significant differences |
